The values below are quoted from earlier work in US20100247649A1, “PHARMACEUTICAL FORMULATIONS COMPRISING TELMISARTAN AND HYDROCHLOROTHIAZIDE” (DR. REDDY'S LABORATORIES LTD., priority 2007, published 2010).

Take `CCCc1nc2c(C)cc(-c3nc4ccccc4n3C)cc2n1Cc1ccc(-c2ccccc2C(=O)O)cc1` [Telmisartan, 4′-[(1,4′-dimethyl-2′-propyl[2,6′-bi-1H-benzimidazol]-1′-yl)methyl]-[1,1′-biphenyl]-2-carboxylic acid]: the “Aqueous solubility in the physiological pH range of the gastrointestinal tract” value (between pH 1 and 7) is on record as “very poor”. For the same compound, the “Solubility in hydrochloric acid” value (hydrochloric acid) is reported as “insoluble”. In addition, the “Solubility in the pH range of 3 to 9” value (pH range of 3 to 9) is “practically insoluble”. The “Solubility in strong acids” value (strong acids (except hydrochloric acid)) was “sparingly soluble”. Further, under “strong bases”, the “Solubility in strong bases” value is given as “soluble”. The Solubility in water entry (water) is “practically insoluble”.
For `NS(=O)(=O)c1cc2c(cc1Cl)NCNS2(=O)=O` [Hydrochlorothiazide, 6-chloro-3,4-dihydro-2H-1,2,4-benzothiadiazine-7-sulfonamide 1,1-dioxide], the “Stability in alkaline conditions” value (alkaline conditions) is on record as “degrades”.
